How the values were obtained:
soybean = assay: Example 4: soybean yield-enhancing effect in field (dry grain mass); format: in vivo; conditions: ascorbic acid 1,500 ppm, one foliar spray, 6.7 mL per plant, day 75 after sowing
Procedure: The influence of foliar spray of a composition containing 1 500 ppm ascorbic acid on soybean yield was evaluated. Foliar spray was carried out only once, and types of test plots were examined (Table 5). The cultivation of soybean was carried out in a field in Tochigi Prefecture, and the soybean cultivar used was “Sato no Hohoemi.” Of the field, a ridge with a width of 2 m excluding the perimeter was used as one plot, and foliar spray treatment was carried out. 3 plot tests were carried out per test plot. An average of 10 plants were cultivated in the range of 2 m, which was set as one plot. In addition to the reagents mentioned in Example 2, polyoxyethylene lauryl ether was used as a nonionic surfactant. Further, the urea, potassium dihydrogen phosphate, sodium sulfite, glutathione, and EDTA used were those manufactured by FUJIFILM Wako Pure Chemical Corporation. The reagents were dissolved in tap water or deionized water to prepare spraying solutions. By using a battery-driven atomizer (GT-5HS, Koshin Ltd.), 6.7 mL of the ascorbic acid aqueous solution per plant was sprayed over the entire soybean plant body. […] The dry grain mass was measured as yield data. After calculating the average grain weight of each plant in one plot, the mean and the standard deviation for the eight plots were calculated (FIG. 9).

Lotus japonicus = assay: Example 8: number of pods and seed weight in Lotus japonicus; format: in vivo; conditions: ascorbic acid 1,500 ppm, tap water vs deionized water
Procedure: Medium-term fertilizer effect type culture soil (Takii hydrous cell medium-term fertilizer effect type, Takii & Co., Ltd.) and vermiculite grains (Akagi-Engei Co., Ltd.) were mixed at a volume ratio of 1:1, and the soil was placed in a polypot (diameter: 6 cm, height: 5.5 cm).
The Lotus japonicus seeds used were Miyakojima MG-20 lineage. To a 2 mL microtube (Eppendorf) filled approximately ⅓ with the seeds, 1 mL of concentrated sulfuric acid (FUJIFILM Wako Pure Chemical Corporation) was added and allowed to stand for 10 minutes. After rinsing five times with tap water, the seeds were soaked for two hours. After tap water was supplied in an amount of 100 mL per pot, 3 seeds, which had undergone germination treatment, per pot were each sown at a depth of from about 1 to 2 cm from the soil surface. The number of repeats in each test plot was 8 (n=8). […]
For the preparation of the spraying solutions, BHT of the component (B) was previously dissolved in the component (C), and the components (C) and (D) were then mixed to prepare a second agent. […] The number of pods and seed weight of each plant were measured.

In the case of `O=C1O[C@H]([C@@H](O)CO)C(O)=C1O` [ascorbic acid, (R)-3,4-dihydroxy-5-((S)-1,2-dihydroxyethyl)furan-2(5H)-one], the “effects of tap water and deionized water on seed weight” value (soybean) is reported as “different from each other” and the “effects on the seed weight” value (Lotus japonicus) is reported as “varied in accordance with the water quality”.
